Results published in US4265808A, “Pharmacologically active peptides” (Eli Lilly and Company, priority 1979, dated 1981).
Structures can show the parent of a compound that is named as a salt. Where a SMILES comes first, the peptide text is derived from it. [ ]: non-standard residue; d: D form. NEtPhe(4-F) = CCN[C@@H](Cc1ccc(F)cc1)C(=O)O

Test system: mouse
Test: mouse hot plate test (analgesic activity)
Format: in vivo
Conditions: hot plate 52° C., 15 minutes after administration, latency to jump; for Analgesic Activity, Hot Plate Test ED50, mg./kg. subcutaneous: subcutaneous injection
Method: In this test, a mouse is placed inside an upright acrylic cylinder comprising, as its base, a hot plate surface which is maintained at 52° C. The mouse is given, orally or by subcutaneous injection, a predetermined amount of test compound dissolved or suspended in a suitable carrier, and, 15 minutes after administration of the test compound, the mouse is placed on the hot plate surface. The latency in seconds until the mouse jumps from the hot plate surface is measure. […] This must occur in a dose range which produces no motor incoordination or incapacitation. The following Table records the ED50 results obtained from this test.

| SMILES | Analgesic Activity, Hot Plate Test ED50, mg./kg. oral | Analgesic Activity, Hot Plate Test ED50, mg./kg. subcutaneous |
| --- | --- | --- |
| CCN(C(=O)CNC(=O)[C@@H](C)NC(=O)[C@@H](N)Cc1ccc(O)cc1)[C@@H](Cc1ccc(F)cc1)C(N)=O [Example 1, L-Tyrosyl-D-alanyl-glycyl-L-(N-ethyl)-p-fluorophenylalanine Amide, Acetate Salt] | 19 mg/kg | 0.00018 mg/kg |
| CCN(C(=O)CNC(=O)[C@H](NC(=O)[C@@H](N)Cc1ccc(O)cc1)[C@H](C)O)[C@@H](Cc1ccc(F)cc1)C(N)=O [Example 2, L-Tyrosyl-D-threonyl-glycyl-L-(N^α -ethyl)-p-fluorophenylalanine Amide, Acetate Salt] (H-Y[dT]G[NEtPhe(4-F)]-NH2) |  | 0.0121 mg/kg |
| CCN(C(=O)CNC(=O)[C@@H](C)NC(=O)[C@H](Cc1ccc(O)cc1)NC)[C@@H](Cc1ccc(F)cc1)C(N)=O [Example 3, L-N^α -Methyl-tyrosyl-D-alanyl-glycyl-L-(N^α -Ethyl)-p-fluorophenylalanine Amide, Acetate Salt] | 3.55 mg/kg | 0.0117 mg/kg |
